Among the data in ChEMBL document CHEMBL1151500, “Inhibition of calpain by peptidyl heterocycles” (Bioorg Med Chem Lett, 1996) are inhibition values, retold here.

Each structure is given as a SMILES string.

This assay has as its target T1, Calpain-1 catalytic subunit (Homo sapiens) (UniProt P07384).
T1 sequence (whole entry): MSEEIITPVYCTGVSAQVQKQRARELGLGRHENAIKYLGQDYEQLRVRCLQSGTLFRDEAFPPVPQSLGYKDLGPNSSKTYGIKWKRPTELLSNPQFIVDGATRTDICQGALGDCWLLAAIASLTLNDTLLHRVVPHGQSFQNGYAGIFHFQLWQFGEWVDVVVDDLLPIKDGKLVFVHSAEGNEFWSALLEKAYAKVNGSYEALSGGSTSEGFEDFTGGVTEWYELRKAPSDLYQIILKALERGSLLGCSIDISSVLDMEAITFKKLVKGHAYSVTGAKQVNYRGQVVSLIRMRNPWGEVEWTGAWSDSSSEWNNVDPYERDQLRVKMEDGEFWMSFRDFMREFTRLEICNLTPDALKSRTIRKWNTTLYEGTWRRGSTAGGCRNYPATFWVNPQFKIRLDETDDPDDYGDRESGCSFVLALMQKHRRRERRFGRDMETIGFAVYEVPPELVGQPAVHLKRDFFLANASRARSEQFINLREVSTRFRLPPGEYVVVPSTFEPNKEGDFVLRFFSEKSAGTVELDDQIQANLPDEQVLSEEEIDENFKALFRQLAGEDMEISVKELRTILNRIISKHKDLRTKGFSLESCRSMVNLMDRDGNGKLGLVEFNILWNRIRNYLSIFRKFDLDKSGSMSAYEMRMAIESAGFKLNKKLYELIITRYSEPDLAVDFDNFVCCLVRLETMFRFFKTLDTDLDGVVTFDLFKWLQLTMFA
Briefly: Inhibitory activity against human recombinant Calpain 1 at a concentration of 10 uM.
By inhibition is commonly meant the share of the control response that was lost under treatment. On to `CC(C)C[C@H](NC(=O)OCc1ccccc1)C(=O)N[C@@H](CC(C)C)C(=O)N[C@@H](Cc1ccccc1)C(=O)c1nccs1`, for which the inhibition was found to be 54%. Regarding `CC(C)C[C@H](NC(=O)OC(C)(C)C)C(=O)N[C@@H](CC(C)C)C(=O)c1ncc[nH]1`, the inhibition amounted to 77%. Under `CC(C)C[C@H](NC(=O)OCc1ccccc1)C(=O)N[C@@H](CC(C)C)C(=O)c1nccn1Cc1ccccc1` stands 39%; under `CC(C)C[C@H](NC(=O)OCc1ccccc1)C(=O)N[C@@H](CC(C)C)C(=O)C1N=NN=N1`, 11%; under `CC(C)C[C@H](NC(=O)OCc1ccccc1)C(=O)N[C@@H](CC(C)C)C(=O)c1nccn1COCC[Si](C)(C)C`, 0%. `CC(C)C[C@H](NC(=O)OCc1ccccc1)C(=O)N[C@@H](CC(C)C)C(=O)c1ncc[nH]1`: the inhibition came out at 0%.
